Experimental data from patent US12637425B2, “Compounds and formulations for treating ophthalmic diseases” (Visus Therapeutics, Inc., priority 2020, dated 2026).

Assays:
[1] = biological target: T1, Recombinant cryAB(R120G) protein (Homo sapiens, UniProt P02511, R120G); assay: Kinetic turbidity aggregation assay of recombinant cryAB(R120G); format: biochemical; settings: for inhibition at 25 µM: 25 μM compound, read-out: % Inhibition of Protein Aggregation, 25 μM cmpd; for inhibition at 25 µM / inhibition at 100 µM / inhibition at 400 µM: 15 μM cryAB(R120G), 42° C., absorbance at 550 nm; for inhibition at 100 µM: 100 μM compound, read-out: % Inhibition of Protein Aggregation, 100 μM cmpd; for inhibition at 400 µM: 400 μM compound, read-out: % Inhibition of Protein Aggregation, 400 μM cmpd; for IC50: inhibition of cryAB(R120G) protein aggregation
T1 sequence (P02511 1-175 R120G): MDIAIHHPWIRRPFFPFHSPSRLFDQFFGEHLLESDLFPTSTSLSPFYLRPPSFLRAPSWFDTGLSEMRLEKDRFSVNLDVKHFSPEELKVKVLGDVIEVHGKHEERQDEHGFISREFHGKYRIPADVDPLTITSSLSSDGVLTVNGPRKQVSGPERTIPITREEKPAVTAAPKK
In short: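 Recombinant human cryAB R120G at 15 μM final in 50 mM Tris, 100 mM NaCl, 5 mM DTT, 0.01% Triton X-100, 0.05% PEG-8000 with 4% DMSO. Compounds added from 2-fold serial DMSO dilutions, run in quadruplicate; aggregation followed kinetically by turbidity.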

[2] = biological target: T2, Alpha-Crystallin Domain of alpha B crystallin containing the E117C mutation (Homo sapiens, UniProt P02511, E117C); assay: CryAB binding assay (MicroScale Thermophoresis, direct binding); settings: 100 nM Cy5-labeled protein, Tris buffer pH 8
T2 construct: the Alpha-Crystallin Domain of alpha B crystallin containing the E117C mutation
T2 sequence (P02511 56-164 E117C limits assumed): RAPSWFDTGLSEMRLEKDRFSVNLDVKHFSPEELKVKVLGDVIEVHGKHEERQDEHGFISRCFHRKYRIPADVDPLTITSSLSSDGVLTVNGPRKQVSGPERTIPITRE
Method: Example A-2: CryAB Binding Assay
Affinities were determined by MicroScale Thermophoresis using a direct binding assay. Briefly, the Alpha-Crystallin Domain of alpha B crystallin containing the E117C mutation was alkylated with a Cy5 dye and monitored for binding at 100 nM protein in Tris buffer pH 8, containing 0.1% PEG-8000, 0.05% Tween-20, and 5% DMSO. Binding assays were performed by titrating ligand against a mixture of the dye-labeled protein and monitoring fluorescence changes indicating binding. Based on observed fluorescence measurements for each compound titration a KD was calculated using the Law of Mass Action equation.

Compound | inhibition at 25 µM [1] | inhibition at 100 µM [1] | inhibition at 400 µM [1] | IC50 [1] | Kd [2]
CN(C)C(CNS(=O)(=O)c1ccc2cc[nH]c2c1)c1cn(C)c2ccccc12 (stereo not shown) [Compound 10, N-(2-(dimethylamino)-2-(1-methyl-1H-indol-3-yl)ethyl)-1H-indole-6-sulfonamide] | 69.8% | 98.7% | 99.7% | 10 to 50 µM | 10 to 50 µM
Cn1cc([C@@H](CNS(=O)(=O)c2ccc3cc[nH]c3c2)N2CCCC2)c2ccccc21 [Compound 24, (S)-N-(2-(1-methyl-1H-indol-3-yl)-2-(pyrrolidin-1-yl)ethyl)-1H-indole-6-sulfonamide] | 99.7% | 99.9% | – | ≤ 10 µM | ≤ 10 µM
Cn1cc([C@H](CNS(=O)(=O)c2ccc3cc[nH]c3c2)N2CCCC2)c2ccccc21 [Compound 25, (R)-N-(2-(1-methyl-1H-indol-3-yl)-2-(pyrrolidin-1-yl)ethyl)-1H-indole-6-sulfonamide] | 39% | 97.1% | 97.2% | 10 to 50 µM | 10 to 50 µM
Cn1cc([C@H](CNS(=O)(=O)c2ccc3cc[nH]c3c2)N2CCCC2)c2ccncc21 [Compound 83, (R)-N-(2-(1-methyl-1H-pyrrolo[2,3-c]pyridin-3-yl)-2-(pyrrolidin-1-yl)ethyl)-1H-indole-6-sulfonamide] | 1% | 26% | – | – | –
Cn1cc([C@@H](CNS(=O)(=O)c2ccc3cc[nH]c3c2)NCc2cncs2)c2ccccc21 [Compound 84, (S)-N-(2-(1-methyl-1H-indol-3-yl)-2-((thiazol-5-ylmethyl)amino)ethyl)-1H-indole-6-sulfonamide] | 25% | 71.8% | – | – | –
Cn1cc([C@H](CNS(=O)(=O)c2ccc3cc[nH]c3c2)NCc2cncs2)c2ccccc21 [Compound 85, (R)-N-(2-(1-methyl-1H-indol-3-yl)-2-((thiazol-5-ylmethyl)amino)ethyl)-1H-indole-6-sulfonamide] | 37% | 84.4% | – | – | –
CN(Cc1cncs1)[C@H](CNS(=O)(=O)c1ccc2cc[nH]c2c1)c1cn(C)c2ccccc12 [Compound 86, (S)-N-(2-(methyl(thiazol-5-ylmethyl)amino)-2-(1-methyl-1H-indol-3-yl)ethyl)-1H-indole-6-sulfonamide] | 80% | 94.1% | – | – | –
CN(Cc1cncs1)[C@@H](CNS(=O)(=O)c1ccc2cc[nH]c2c1)c1cn(C)c2ccccc12 [Compound 87, (R)-N-(2-(methyl(thiazol-5-ylmethyl)amino)-2-(1-methyl-1H-indol-3-yl)ethyl)-1H-indole-6-sulfonamide] | 47% | 83.2% | – | – | –
CNC(CNS(=O)(=O)c1ccc2cc[nH]c2c1)c1cn(C)c2ccccc12 (stereo not shown) [Compound 88, N-(2-(1-methyl-1H-indol-3-yl)-2-(methylamino)ethyl)-1H-indole-6-sulfonamide] | 21% | 94.3% | – | – | –
Cn1nc([C@@H](CNS(=O)(=O)c2ccc3cc[nH]c3c2)N2CCCC2)c2ccccc21 [Compound 89, (R)-N-(2-(1-methyl-1H-indazol-3-yl)-2-(pyrrolidin-1-yl)ethyl)-1H-indole-6-sulfonamide] | 98.4% | 99.7% | – | ≤ 10 µM | –
Cn1nc([C@H](CNS(=O)(=O)c2ccc3cc[nH]c3c2)N2CCCC2)c2ccccc21 [Compound 90, (S)-N-(2-(1-methyl-1H-indazol-3-yl)-2-(pyrrolidin-1-yl)ethyl)-1H-indole-6-sulfonamide] | -15% | 65.6% | – | – | –
CCn1nc([C@@H](CNS(=O)(=O)c2ccc3cc[nH]c3c2)N2CCCC2)c2ccccc21 [Compound 91, (R)-N-(2-(1-ethyl-1H-indazol-3-yl)-2-(pyrrolidin-1-yl)ethyl)-1H-indole-6-sulfonamide] | 99% | 99.6% | – | ≤ 10 µM | ≤ 10 µM
CCn1nc([C@H](CNS(=O)(=O)c2ccc3cc[nH]c3c2)N2CCCC2)c2ccccc21 [Compound 92, (S)-N-(2-(1-ethyl-1H-indazol-3-yl)-2-(pyrrolidin-1-yl)ethyl)-1H-indole-6-sulfonamide] | 49% | 99.3% | – | – | –
Cn1cc(C(CN(CC#N)S(=O)(=O)c2ccc3cc[nH]c3c2)N2CCCC2)c2ccccc21 (stereo not shown) [Compound 93, N-(cyanomethyl)-N-(2-(1-methyl-1H-indol-3-yl)-2-(pyrrolidin-1-yl)ethyl)-1H-indole-6-sulfonamide] | 99.7% | 94.3% | – | ≤ 10 µM | ≤ 10 µM
CCn1nc([C@@H](CNS(=O)(=O)c2ccc3cc[nH]c3c2)N2CCC2)c2ccccc21 [Compound 94, (R)-N-(2-(azetidin-1-yl)-2-(1-ethyl-1H-indazol-3-yl)ethyl)-1H-indole-6-sulfonamide] | 97.7% | 99.1% | – | – | –
CCn1nc([C@H](CNS(=O)(=O)c2ccc3cc[nH]c3c2)N2CCC2)c2ccccc21 [Compound 95, (S)-N-(2-(azetidin-1-yl)-2-(1-ethyl-1H-indazol-3-yl)ethyl)-1H-indole-6-sulfonamide] | 14% | 56.2% | – | – | –
COc1cc2cc[nH]c2cc1S(=O)(=O)NCC(c1cn(C)c2ccccc12)N(C)C (stereo not shown) [Compound 96, N-(2-(dimethylamino)-2-(1-methyl-1H-indol-3-yl)ethyl)-5-methoxy-1H-indole-6-sulfonamide] | 60% | 58.8% | – | – | –
COc1ccc2[nH]ccc2c1S(=O)(=O)NCC(c1cn(C)c2ccccc12)N(C)C (stereo not shown) [Compound 97, N-(2-(dimethylamino)-2-(1-methyl-1H-indol-3-yl)ethyl)-5-methoxy-1H-indole-4-sulfonamide] | -45% | 58.8% | – | – | –
Cn1nc([C@@H](CNS(=O)(=O)c2ccc3cc[nH]c3c2)N2CCC2)c2ccccc21 [Compound 98, (R)-N-(2-(azetidin-1-yl)-2-(1-methyl-1H-indazol-3-yl)ethyl)-1H-indole-6-sulfonamide] | 92.9% | 99.1% | – | – | –
Cn1nc([C@H](CNS(=O)(=O)c2ccc3cc[nH]c3c2)N2CCC2)c2ccccc21 [Compound 99, (S)-N-(2-(azetidin-1-yl)-2-(1-methyl-1H-indazol-3-yl)ethyl)-1H-indole-6-sulfonamide] | -56% | 21.3% | – | – | –
Cc1ccc2c(C(CNS(=O)(=O)c3ccc4cc[nH]c4c3)N(C)C)cn(C)c2c1 (stereo not shown) [Compound 100, N-(2-(1,6-dimethyl-1H-indol-3-yl)-2-(dimethylamino)ethyl)-1H-indole-6-sulfonamide] | 61.7% | 99.9% | – | – | –
Cn1cc([C@@H](CNS(=O)(=O)c2ccc3cc[nH]c3c2)N2CCC2)c2ccccc21 [Compound 101, (S)-N-(2-(azetidin-1-yl)-2-(1-methyl-1H-indol-3-yl)ethyl)-1H-indole-6-sulfonamide] | 63% | 97.6% | – | – | –
Cn1cc([C@H](CNS(=O)(=O)c2ccc3cc[nH]c3c2)N2CCC2)c2ccccc21 [Compound 102, (R)-N-(2-(azetidin-1-yl)-2-(1-methyl-1H-indol-3-yl)ethyl)-1H-indole-6-sulfonamide] | 94% | 94.3% | – | – | –
CC1CN(C(CNS(=O)(=O)c2ccc3cc[nH]c3c2)c2cn(C)c3ccccc23)C1 (stereo not shown) [Compound 103, N-(2-(1-methyl-1H-indol-3-yl)-2-(3-methylazetidin-1-yl)ethyl)-1H-indole-6-sulfonamide] | 59% | 99.7% | – | – | –
